The values below come from ChEMBL document CHEMBL1148110, “New lanostanoids from the fungus Ganoderma concinna” (J Nat Prod, 2002).

Test [1] concerns HL-60. Kind of test: Induction of apoptosis in human HL60 cells assessed as intranucleosomal hydrolysis of chromatin at 30 uM after 24 hrs by agarose gel electrophoresis. Format: functional, cell-based.
In test [2] the test system is HL-60. Put plainly: Induction of apoptosis in human HL60 cells assessed as chromatin condensation and fragmentation at 30 uM after 24 hrs by quantitative fluorescent microscopy.
In test [3] the test system is HL-60. Put plainly: Induction of apoptosis in human HL60 cells assessed as morphological changes at 30 uM after 24 hrs by Hoechst 33258 staining. In kind it is functional, cell-based.
Test [4] has as its system HL-60. Kind of test: Cytotoxicity against human HL60 cells after 24 hrs by MTT assay. Format: functional, cell-based. As to conditions: HL-60, 24 h.

Calls of active or inactive are those of the source. The calls are words filed in the database; no cut-off is given here.

With `C/C(C=O)=C/CC[C@@H](C)[C@H]1CC[C@@]2(C)C3=CC[C@H]4C(C)(C)[C@@H](O)CC[C@]4(C)C3=CC[C@]12C`, the outcome in test [1] was Active. Besides, in test [2], the Activity amounted to 15%.
`C/C(=C/CC[C@@H](C)[C@H]1C[C@H](O)[C@@]2(C)C3=CC[C@H]4C(C)(C)C(=O)CC[C@]4(C)C3=CC[C@]12C)CO`: the result in test [1] and in test [3] was Active. Besides, in test [2], the Activity is recorded as 62%. For the same compound, in test [4], 15.7 µM corresponded to half-maximal inhibition (IC50).
For the compound `CC(=O)[C@H]1CC(=O)[C@@]2(C)[C@]34O[C@@]3(C(=O)C[C@]12C)[C@@]1(C)CCC(=O)C(C)(C)[C@@H]1CC4=O`, the result in test [1] was Active. For the same compound, the Activity in test [2] is on record as 12%.
